Literature values as cited in US20150306111A1 (priority 2012, published 2015).
Entries after “also recorded” stand apart in the source; their conditions may differ. Like-named read-outs stand apart in the source and are kept apart here.

How the values were obtained:
[1] = test system: asthma patients with seasonal allergic rhinitis and nasal congestion; settings: daily dose of 5 mg, 331 patients

Clc1ccc2c(c1)CCc1cccnc1C2=C1CCNCC1 [desloratadine]
Effect on symptoms compared with placebo [1]: effective in reducing overall symptoms, the symptoms of asthma and the symptoms of nasal congestion | Solubility in ethyl alcohol (ethyl alcohol): very soluble in ethyl alcohol | Solubility in propylene glycol (propylene glycol): moderately soluble in propylene glycol | Solubility in water: practically insoluble in water; also recorded: low solubility in water | Solubility in water (listed as Desloratadine): poorly soluble in water
